Measured values from ChEMBL document CHEMBL1201862, “PubChem BioAssay data set” (2004).
The source made the active and inactive calls.

Legend:
[1] = molecular target: T1, Rac GTPase-activating protein 1 (Homo sapiens, UniProt Q9H0H5); experiment: MgcRacGAP GTPase-activating activity inhibitors, confirmation, biochemical, ADP Hunter fluorescence, primary and confirmatory (AID 624330); type: functional
T1 sequence (Q9H0H5 whole entry): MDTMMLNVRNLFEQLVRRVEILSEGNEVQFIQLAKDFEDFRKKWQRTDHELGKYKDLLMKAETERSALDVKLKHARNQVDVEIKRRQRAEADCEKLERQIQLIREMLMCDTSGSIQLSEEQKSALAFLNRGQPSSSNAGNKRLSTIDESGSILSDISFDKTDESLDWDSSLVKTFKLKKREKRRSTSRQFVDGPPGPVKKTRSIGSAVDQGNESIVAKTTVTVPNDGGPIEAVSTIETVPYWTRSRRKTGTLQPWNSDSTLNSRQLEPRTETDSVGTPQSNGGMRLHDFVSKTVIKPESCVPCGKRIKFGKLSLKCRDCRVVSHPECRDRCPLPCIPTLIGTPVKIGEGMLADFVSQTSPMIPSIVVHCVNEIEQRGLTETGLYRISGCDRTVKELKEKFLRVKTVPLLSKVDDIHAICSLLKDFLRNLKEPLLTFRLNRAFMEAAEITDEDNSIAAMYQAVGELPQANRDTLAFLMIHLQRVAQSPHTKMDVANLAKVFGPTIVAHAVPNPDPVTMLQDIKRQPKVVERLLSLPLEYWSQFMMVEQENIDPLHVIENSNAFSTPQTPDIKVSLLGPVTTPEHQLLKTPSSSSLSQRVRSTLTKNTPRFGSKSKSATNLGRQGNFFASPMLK

[2] = Fluorescence-based cell-based high throughput dose response assay for inhibitors of the interaction of nucleotide-binding oligomerization domain containing 2 (NOD2) and the receptor-interacting serine-threonine kinase 2 (RIPK2).; type: functional; settings: Homo sapiens
[3] = molecular target: T2, Interleukin-8 (Homo sapiens, UniProt P10145); experiment: Dose Response confirmation of uHTS small molecule hits for cystic fibrosis induced NFkb Inhibitors in a PAF-induced IL8 counterscreen.; type: functional; settings: read-out: IC50_Mean
T2 sequence (P10145 whole entry): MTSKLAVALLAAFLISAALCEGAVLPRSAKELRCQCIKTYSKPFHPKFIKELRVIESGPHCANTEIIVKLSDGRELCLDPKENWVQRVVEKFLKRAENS

[4] = molecular target: T2, Interleukin-8; experiment: Dose Response confirmation of uHTS small molecule hits for cystic fibrosis induced NFkb Inhibitors in a TNFa-induced IL8 counterscreen.; type: functional; settings: read-out: IC50_Mean
[5] = molecular target: Galanin receptor type 3 (Homo sapiens, UniProt O60755); experiment: Fluorescence-based cell-based primary high throughput dose response assay to identify antagonists of the Galanin Receptor 3 (GalR3).; type: functional
Chain of Galanin receptor type 3 (O60755 whole entry): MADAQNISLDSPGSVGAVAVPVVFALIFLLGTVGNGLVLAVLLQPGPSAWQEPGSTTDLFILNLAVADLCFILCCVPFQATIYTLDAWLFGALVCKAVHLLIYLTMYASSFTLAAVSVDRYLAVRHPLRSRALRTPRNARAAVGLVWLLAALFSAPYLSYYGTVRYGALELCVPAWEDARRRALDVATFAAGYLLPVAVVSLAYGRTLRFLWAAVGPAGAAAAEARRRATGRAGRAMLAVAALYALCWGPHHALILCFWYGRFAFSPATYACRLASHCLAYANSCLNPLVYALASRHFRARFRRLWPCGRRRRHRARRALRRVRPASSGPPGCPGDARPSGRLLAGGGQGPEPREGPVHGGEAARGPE

[6] = cells; type: functional, cell-based; settings: HEK-CNG
[7] = AlphaScreen signal interference compounds, dose response, artefact control for ARNT-TACC3 interaction inhibitor project, biochemical, luminescence, cherry-pick (AID 651705); type: functional;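 also: AlphaScreen bead proximity signal that flags compounds interfering with the detection technology; potency reflects signal decrease which marks the compound as an assay artifact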
[8] = molecular target: Nonstructural protein 1 (Influenza A virus, UniProt Q194T2); type: functional, Influenza A virus (A/California/07/2009(H1N1))
Chain of Nonstructural protein 1 (Q194T2 whole entry): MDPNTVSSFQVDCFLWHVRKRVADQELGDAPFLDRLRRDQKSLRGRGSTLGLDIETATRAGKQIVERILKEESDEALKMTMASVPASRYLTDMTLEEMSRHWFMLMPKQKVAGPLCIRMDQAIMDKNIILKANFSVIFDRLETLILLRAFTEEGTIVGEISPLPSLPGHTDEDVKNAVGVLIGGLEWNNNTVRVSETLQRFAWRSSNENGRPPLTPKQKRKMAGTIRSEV

[9] = intracellular Trypanosoma cruzi inhibitors in host cells – cell-based, plate reader, cherry-pick samples, set 3, dose response (AID 651818); type: functional;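 also: compounds incubated with infected cells for about four days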
[10] = NIH/3T3 fibroblast cytotoxicity, dose response, cytotoxicity control for T. cruzi growth inhibitor project, cell-based, cherry-pick samples, set 2 (AID 651817); type: functional; settings: NIH3T3
[11] = ARNT/TACC3 interaction disruptors, potency, confirmation, biochemical, AlphaScreen, cherry-picked samples (AID 651703); type: functional, Homo sapiens;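 also: His-tagged ARNT PAS-B domain paired with GST-TACC3 E629A dimer coactivator fragment; potency of inhibitors that break up the complex and lower AlphaScreen signal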
[12] = molecular target: Adenosylmethionine-8-amino-7-oxononanoate aminotransferase (Mycobacterium tuberculosis, UniProt P9WQ81); experiment: Mycobacterium tuberculosis BioA enzyme inhibitor Measured in Biochemical System Using Plate Reader - 2163-02_Inhibitor_Dose_CherryPick_Activity.; type: functional, Mycobacterium tuberculosis UT205
Chain of Adenosylmethionine-8-amino-7-oxononanoate aminotransferase (P9WQ81 whole entry): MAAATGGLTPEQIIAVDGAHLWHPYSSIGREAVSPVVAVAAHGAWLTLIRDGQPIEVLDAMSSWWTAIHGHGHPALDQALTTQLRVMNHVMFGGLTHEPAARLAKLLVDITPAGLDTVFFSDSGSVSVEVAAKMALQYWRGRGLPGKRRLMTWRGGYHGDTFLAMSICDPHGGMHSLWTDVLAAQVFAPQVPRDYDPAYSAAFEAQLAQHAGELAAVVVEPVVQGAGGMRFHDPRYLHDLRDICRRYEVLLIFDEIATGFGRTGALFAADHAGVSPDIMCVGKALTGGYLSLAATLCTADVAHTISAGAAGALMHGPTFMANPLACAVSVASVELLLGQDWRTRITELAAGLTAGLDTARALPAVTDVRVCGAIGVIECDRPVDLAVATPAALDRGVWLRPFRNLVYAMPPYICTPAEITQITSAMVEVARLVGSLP

[13] = molecular target: T3, ATP-dependent translocase ABCB1 (Homo sapiens, UniProt P08183); experiment: ABCG2 efflux pump inhibitor potency, dose response, Ig-MXP3 cells, JC-1, flow cytometry, set 2 (AID 504566); type: functional; settings: read-out: EC50_MICROM_;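 also: flow cytometry median green fluorescence of retained JC-1 dye; potency of efflux pump inhibition measured as rising substrate retention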
T3 sequence (P08183 whole entry): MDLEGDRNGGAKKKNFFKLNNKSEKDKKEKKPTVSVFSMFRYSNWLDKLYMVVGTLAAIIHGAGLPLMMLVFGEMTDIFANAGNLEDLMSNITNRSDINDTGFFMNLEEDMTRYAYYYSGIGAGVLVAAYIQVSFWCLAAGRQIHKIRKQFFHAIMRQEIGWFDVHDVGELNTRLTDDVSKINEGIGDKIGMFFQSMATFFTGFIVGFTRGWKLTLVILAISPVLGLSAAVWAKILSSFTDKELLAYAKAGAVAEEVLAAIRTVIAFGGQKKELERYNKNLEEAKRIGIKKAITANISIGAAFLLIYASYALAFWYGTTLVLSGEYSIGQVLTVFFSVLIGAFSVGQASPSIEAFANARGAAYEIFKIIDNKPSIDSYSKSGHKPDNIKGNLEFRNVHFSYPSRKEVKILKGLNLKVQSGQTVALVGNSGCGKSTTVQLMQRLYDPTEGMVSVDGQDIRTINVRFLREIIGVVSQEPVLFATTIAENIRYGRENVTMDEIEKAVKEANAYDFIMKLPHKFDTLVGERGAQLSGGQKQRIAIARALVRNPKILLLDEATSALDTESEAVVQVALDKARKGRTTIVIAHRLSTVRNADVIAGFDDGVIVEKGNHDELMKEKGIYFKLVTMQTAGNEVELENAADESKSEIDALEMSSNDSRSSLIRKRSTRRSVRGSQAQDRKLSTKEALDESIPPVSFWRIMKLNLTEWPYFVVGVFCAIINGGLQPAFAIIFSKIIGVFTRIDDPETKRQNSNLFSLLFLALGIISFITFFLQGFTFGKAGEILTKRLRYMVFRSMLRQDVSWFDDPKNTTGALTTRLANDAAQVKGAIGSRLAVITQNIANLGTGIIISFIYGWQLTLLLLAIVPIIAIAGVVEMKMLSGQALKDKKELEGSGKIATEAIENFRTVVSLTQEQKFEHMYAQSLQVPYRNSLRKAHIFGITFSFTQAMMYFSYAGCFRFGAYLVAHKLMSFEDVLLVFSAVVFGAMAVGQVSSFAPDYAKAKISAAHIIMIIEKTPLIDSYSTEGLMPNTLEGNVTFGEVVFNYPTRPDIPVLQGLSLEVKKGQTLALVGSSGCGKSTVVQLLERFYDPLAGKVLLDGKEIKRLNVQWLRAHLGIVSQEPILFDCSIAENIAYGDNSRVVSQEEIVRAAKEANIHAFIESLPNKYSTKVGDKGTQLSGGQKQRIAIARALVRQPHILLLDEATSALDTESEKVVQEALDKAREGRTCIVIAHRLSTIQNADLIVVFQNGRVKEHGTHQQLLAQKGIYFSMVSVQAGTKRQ

[14] = molecular target: T3, ATP-dependent translocase ABCB1; experiment: ABCB1 efflux inhibitor potency, dose response, Jurkat-DNR cells, JC-1, flow cytometry, set 2 (AID 504569); type: functional; settings: read-out: EC50_MICROM_;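 also: potency of pump inhibitors that raise cellular JC-1 green fluorescence up to the nicardipine level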
[15] = ZM109 Env clade C HIV-1 fusion inhibitors, dose response, HeLa effector, CEM target cells, luciferase, cherry-pick (AID 652058); type: functional, cell-based
[16] = test system: HeLa; experiment: HeLa cell cytotoxicity, dose response, cytotoxicity control, ATP luminescence, cherry-pick samples (AID 687004); type: functional, cell-based; settings: Homo sapiens
[17] = molecular target: Protein Wnt-3a (Mus musculus, UniProt P27467); experiment: SAR analysis of small molecule antagonists of Gli-SUFU in a Wnt3a luminescent reporter assay.; type: functional
Chain of Protein Wnt-3a (P27467 whole entry): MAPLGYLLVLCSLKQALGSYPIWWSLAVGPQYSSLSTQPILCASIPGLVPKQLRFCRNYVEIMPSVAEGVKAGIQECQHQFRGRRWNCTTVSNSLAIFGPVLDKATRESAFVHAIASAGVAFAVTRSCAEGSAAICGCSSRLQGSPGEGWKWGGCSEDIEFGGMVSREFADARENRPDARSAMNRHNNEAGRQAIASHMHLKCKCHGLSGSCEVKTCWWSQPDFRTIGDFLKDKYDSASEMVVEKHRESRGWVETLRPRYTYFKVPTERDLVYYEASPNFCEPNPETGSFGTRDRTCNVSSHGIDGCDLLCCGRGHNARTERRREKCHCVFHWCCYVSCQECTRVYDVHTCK

[18] = A549 cell cytotoxicity, dose response, cytotoxicity control, CellTiter-Glo luminescence, dry powder, set 3 (AID 743146); type: functional, cell-based
[19] = HEK293 cell cytotoxicity, dose response, cytotoxicity control, ATP luminescence, dry powder, Set6 (AID 743142); type: functional, cell-based

In the case of O=C1/C(=C\c2ccccc2)CN(C(=O)CCN2CCCCC2)C/C1=C/c1ccccc1, the IC50 [1] is reported as 84.9 µM (active) and the IC50 [2] is reported as 2.89 µM (active).

With CC1C(c2ccccc2)OCCN1C(=S)Nc1ccc(S(=O)(=O)N2CCCCC2)cc1 (centres undefined) the IC50 [3] was 3.69 µM (active) and the IC50 [4] was 4.48 µM (active).

For CC(=O)OCC1OC(n2c(S)c(C#N)c(-c3ccccc3)c(C#N)c2=O)C(OC(C)=O)C(OC(C)=O)C1OC(C)=O (centres undefined), the IC50 [5] was 0.503 µM (active) and the EC50 [6] was > 29.9 µM (inactive).

In the case of CCOc1cccc(/C=N/NC(=O)c2cccnc2)c1O, the AC50 [7] is reported as 101 µM (active) and the IC50 [8] is reported as 15.5 µM (active).

In the case of C[C@@H]1CN([C@H](C)CO)C(=O)Cc2cc(NS(=O)(=O)c3ccc(Cl)cc3)ccc2O[C@@H]1CN(C)S(=O)(=O)c1ccc(Cl)cc1, the AC50 [9] is reported as 3.39 µM (active) and the AC50 [10] is reported as 39 µM (inactive).

With O=C(NC[C@H]1[C@H](c2ccccc2)[C@H](CO)N1Cc1ccccn1)C1CCC1 the AC50 [11] was 129 µM (active).

In the case of C[C@@H]1CN([C@@H](C)CO)C(=O)c2cc(C#Cc3cccnc3)cnc2O[C@H]1CN(C)S(C)(=O)=O, the AC50 [12] is reported as 6.02 µM (active).

In the case of Cc1cccc(-c2cc3nc(-c4ccccc4)cc(N4CCN(C(=O)c5ccco5)CC4)n3n2)c1, the EC50 [13] is reported as 3.22 µM (active) and the EC50 [14] is reported as 3.77 µM (active).

With COc1ccccc1C(=O)Nc1ccc2c(c1)OC[C@H](C)N(C(C)=O)C[C@H](C)[C@H](OC)CN(C)C2=O the AC50 [15] was 33.4 µM (active) and the AC50 [16] was 44.9 µM (active).

In the case of COc1cccc(C(=O)Nc2cc(N3CCCCC3)ncn2)c1, the IC50 [17] is reported as > 21.8 µM (inactive).

With COc1ccc(C(=O)NCCC(=O)N[C@@H]2CCCc3ccccc32)cc1 the AC50 [18] was > 52 µM (inactive) and the AC50 [19] was 3.54 µM (active).
